Counter-ions that a name gives are not always drawn.
System: chick embryos
Experiment: Early embryonic chick culture: heart development (MF20) after HCy, Li or Wnt3A exposure, FA/inositol rescue
Format: in vivo, chick (Gallus gallus)
Conditions: for % Normal Hearts / Abnormal (number of embryos) / Normal (number of embryos): HCy 50 μM, FA 10 μM
Protocol: Pathogen-free White Leghorn chick (Gallus gallus; Charles River, Mass.) and quail (Coturnix coturnix japonica; Strickland Farms, Ga.) embryos were used to analyze the effects of HCy on early embryogenesis. The early processes of heart development are well conserved among vertebrates and the avian model allows for more precise timing of exposure in early embryos. The incubation methodology using agarose-albumin has been described previously (Darnell and Schoenwolf, 2000). Briefly, the experimental paradigm involved exposing specific early stages of chick embryos, at HH stages 4 to 7 (Hamburger and Hamilton, 1951), to different concentrations of HCy (L-homocysteine thiolactone hydrochloride, Sigma) made up in physiological saline. Final concentrations of HCy included 30 μM, 50 μM, 75 μM and 100 μM. The minimal teratogenic dose was determined empirically to be 50 μM. This fit within the concentration range of 30 μM to 300 μM used by others that induced heart defects at later stages of development (Boot et al., 2004). Control embryos were incubated using the vehicle, physiological saline, in the agarose-albumin medium. Control and experimental cultures were incubated on the agarose-albumin plates for either 8 or 24 hours.
Carrier-free, recombinant mouse Wnt3A was purchased from R&D Systems (Minneapolis, Minn.). Wnt3A concentrations were empirically tested to find those that would induce cardiac defects but maintain embryonic viability. Wnt3A was tested at concentrations of 2 ng, 10 ng, 20 ng, 50 ng and 100 ng per ml. Concentrations of 2 ng/ml and 10 ng/ml were both effective in inducing cardiac defects. Both Wnt3A concentrations were used in the FA rescue experiments, as described. For the FA rescue experiments, folate (folic acid, Sigma-Aldrich) was added at a concentration of 2 μg, 5 μg or 10 μg per ml. […] For the experiments using inositol (myo-inositol, Sigma) supplementation, a concentration of 50 mg/ml was used.
The main embryonic defects related to the timing of embryonic exposure; the regions that were primarily affected related to an anterior-to posterior (AP) wave of development along this embryonic axis. The exposure effects ranged from early effects (e.g. no cardiac tissue, heart development occurring anterior to neural tissue, cardiabifida) to later effects, such as wide hearts and left looping (Table 1). The cardiac phenotypes observed with early HCy exposure were similar, although not identical, to those obtained from previous studies of Li exposure on avian heart development (Manisastry et al., 2006). The Wnt/β-catenin modulated genes Hex and Isl1 in the chick embryo also were similarly repressed with HCy, as with Li in the chick cardiogenic region. […] Investigation of regulatory gene activity in chick embryos indicates Li, HCy and Wnt3A suppress Wnt-modulated genes Hex and Islet-1 in the heart fields.
To define the effective dose of Wnt3A needed to induce cardiac dysmorphogenesis, Wnt3A was tested at concentrations of 2 ng, 10 ng, 20 ng, 50 ng, and 100 ng per ml. The minimal effective doses of Wnt3A that induced cardiac and neural anomalies were 2 ng/ml and 10 ng/ml, respectively. Using these concentrations, the inventors analyzed whether FA supplementation of media at 10^3-fold higher concentrations, that is 2 μg/ml or 10 μg/ml, would provide protection against the augmentation of canonical Wnt3A signaling.

[1] = HH stage 3 +/4, Li 50 μM, inositol 280 mM
[2] = 50 μM HCy, early embryonic chick model
[3] = White Leghorn, chick, in vivo, 50 μM

`Nc1nc2ncc(CNc3ccc(C(=O)N[C@@H](CCC(=O)O)C(=O)O)cc3)nc2c(=O)[nH]1` [FA, folic acid] was tested, and the “% Normal Hearts” value [1] was 55%, the “Abnormal (number of embryos)” value [1] was 5 and the “Normal (number of embryos)” value [1] was 6. The “% Normal Hearts” value (HH stage 3 +/4, Li 50 μM, inositol 280 mM, listed as FA only) was 55% and the “heart development (MF20)” value (in vivo) was “normal heart development”.
In the case of `N[C@H]1CCSC1=O` [HCy, L-homocysteine thiolactone hydrochloride], the “Dead, Frequency” value [2] is reported as 6, the “Dead, Percent” value [2] is reported as 5.6% and the “Abnormal (number of embryos)” value [1] is reported as 100. For the same compound, the “Normal (number of embryos)” value [1] was 28, the “% Normal Hearts” value (HH stage 3 +/4, Li 50 μM, inositol 280 mM, hydrochloride) was 22% and the “Abnormal (number of embryos)” value (HH stage 5) was 50. The “Normal (number of embryos)” value (HH stage 5) was 24, the “% Normal Hearts” value (HH stage 5, hydrochloride) was 32% and the minimal teratogenic dose (White Leghorn, chick, in vivo) was 50 µM. The “Cardiabificla, Frequency” value [3] was 11, the “Cardiabificla, Percent” value [3] was 10.2% and the “Delayed development, Frequency” value [3] was 2. The “Delayed development, Percent” value [3] was 1.9%, the “Heart above head, Frequency” value [3] was 18 and the “Heart above head, Percent” value [3] was 16.7%. The “Heart close midline, Frequency” value [3] was 15, the “Heart close midline, Percent” value [3] was 13.9% and the “Left looping, Frequency” value [3] was 11. For the same compound, the “Left looping, Percent” value [3] was 10.2%, the “Tubular heart, Frequency” value [3] was 3 and the “Tubular heart, Percent” value [3] was 2.8%. For the same compound, the “Very abnormal (or no hearts), Frequency” value [3] was 18, the “Very abnormal (or no hearts), Percent” value [3] was 16.7% and the “Wide heart, Frequency” value [3] was 24. The “Wide heart, Percent” value [3] was 22.2% and the “development after exposure at HH stages 6 and 7” value (in vivo) was “normal development”.

Source: patent US9308210B2, “Method for modulating canonical Wnt pathway using folate and inositol” (University of South Florida, priority 2009, dated 2016)
